{
  "source": "patent US20120225417A1",
  "about": "“Methods, Compositions and Kits for the Evaluation and Preservation of Sperm” (I'Alliance Boviteq Inc., priority 2011, published 2012)",
  "assay_type_in_all_cases": "biochemical",
  "key": {"[1]": {"tested_on": "3′-5′ cAMP-PDE activity in bovine spermatozoa", "assay": "3′-5′ cAMP-PDE assay with family-specific PDE inhibitors in bovine spermatozoa", "conditions": "for Percentage of sensitive PDE activity, Cryo (B): cryopreserved bovine spermatozoa; for Percentage of sensitive PDE activity, Cryo (B) / Percentage of sensitive PDE activity, Fresh (A): Cil 10 μM, Rol 10 μM, Papa 400 nM", "description": "The semen was obtained from different Holstein bulls. The fresh ejaculated semen was kept in an insulated thermos flask, at 18° C., during transportation to the laboratory and processed within 3 hours after collection. The cryopreserved semen was obtained at the Centre d'Insémination […] du Québec (CIAQ) […]. The cryopreserved straws of semen were prepared according to CIAQ procedures. […] After cutting one end of the straw the semen was collected in a 15 ml falcon while cutting the other end. From this point fresh and cryopreserved semen were processed similarly. Approximately 50 μL of the semen was added to 5 mL of Talp-BSA medium in a 15 mL falcon tube to wash the spermatozoa. After centrifugation (280×g, 10 min, room temperature), the remaining pellet of approximately 100 μL was resuspended in Talp-BSA medium (500 μl for the fresh and 200 μl for two straws) to reach a concentration of 1×10^6 cells/10 μL. The samples were then vortex-agitated for 30 sec and kept on the ice until ready to run the assay. The concentration of sperm cells was measured according to hemacytometer method. The cAMP enzymatic assay (PDE assay) was conducted as previously described ([…]. et al., (2006). […] J. et al., (1979). Adv Cyclic Nucleotide Res 10, 69-92) with minor modifications. […] Measurements were also performed in the presence of PDE inhibitors: […] Cilostamide and Rolipram were purchased from Biomol. […] Each PDE assay was performed in triplicate for each experiment and each experiment was repeated at least three times. As described ([…]. et al., (2009). […] IBMX-sensitive PDE5 and PDE6 and IBMX-insensitive PDE9 activities are absent from these groups because cGMP is the specific substrate and then are not detected in the cAMP-PDE assay. […] J Dairy Sci 92, 3757-3765; […]., et al. (2007). Endocrinology 148, 1858-1867; Siuciak, J. A. et al., (2006). Neuropharmacology 51, 386-396)."}, "[2]": {"tested_on": "3′-5′ cAMP-PDE activity in bovine cauda epididymal plasma", "assay": "3′-5′ cAMP-PDE assay in bovine cauda epididymal plasma", "conditions": "thawed epididymal plasma 0.5 μL; Papaverine (400 μM) as printed (FIG. 5)", "description": "Epididymis from sexually mature bulls was obtained from a local slaughterhouse. Immediately after slaughtering, testicles were kept on ice and brought to the laboratory within 3 hours. Epididymis was dissected and cleared from connective tissues. As already described (Frenette, G. et al., (2002). Biol Reprod 67, 308-313), fluid from the cauda epididymis was collected by retrograde flushing. Epididymal plasma was isolated according to the same centrifugations steps than the seminal plasma as described below.\n(§1) The cAMP enzymatic assay (PDE assay) was conducted as previously described (Sasseville, M. et al., (2006). BMC developmental biology 6, 47). Samples were directly subjected to PDE assay. 3′-5′ cAMP-PDE activity was assessed at 34° C. in 200 μL final volume using 1 μM cAMP as substrate (Thompson, W. J. et al., (1979). Adv Cyclic Nucleotide Res 10, 69-92) with minor modifications. […] Knowing the exact concentrations of spermatozoa in each SP sample, total 3′-5′ cAMP-PDE activity was reported as the quantity of cAMP (fMol) hydrolysed per minute per the number of spermatozoa (fMol/min/10^6 spz). […] To determine which PDE family contributes to total 3′-5′ cAMP-PDE activity, the activity measured in the presence of the respective inhibitors was subtracted from the total. […]"}, "[3]": {"tested_on": "3′-5′ cAMP-PDE activity in bovine seminal plasma", "assay": "3′-5′ cAMP-PDE assay with family-specific PDE inhibitors in bovine seminal plasma", "conditions": "thawed bovine seminal plasma, papaverine 400 nM (FIG. 8)", "description": "Fresh ejaculated bovine sperm, at known concentrations, was transported for three hours at 18° C. Upon arrival specimens were centrifuged at 400×g during 10 minutes at room temperature to gently pull down spermatozoa. Supernatant was transferred and centrifuged again at 6 000×g at 4° C. during 20 minutes to pull down any remaining spermatozoa. Supernatant was then transferred and centrifuged at 6 000×g at 4° C. during 20 minutes to remove any remaining debris. Seminal plasma (SP) samples were kept on ice until used for PDE assay and stored at −80° C. for further characterization.\nas §1"}},
  "data": [
    {"smiles": "COc1ccc(Cc2nccc3cc(OC)c(OC)cc23)cc1OC", "note": "[Papaverine]", "values": [
      {"measurement": "Percentage of family specific sensitive PDE activity, 3 h Egg yolk", "setting": "[1]; bovine spermatozoa after 3 h in egg yolk based cryoprotectant at 18° C.", "result": 60, "unit": "%"},
      {"measurement": "Percentage of family specific sensitive PDE activity, 3 h Liquid semen", "setting": "[1]; bovine spermatozoa after 3 h in liquid semen extender at 18° C.", "result": 56, "unit": "%"},
      {"measurement": "Percentage of family specific sensitive PDE activity, 3 h 4° C.", "setting": "[1]; bovine spermatozoa after 3 h in seminal plasma at 4° C.", "result": 60, "unit": "%"},
      {"measurement": "Percentage of family specific sensitive PDE activity, 3 h 18° C.", "setting": "[1]; bovine spermatozoa after 3 h in seminal plasma at 18° C.", "result": 59, "unit": "%"},
      {"measurement": "Percentage of family specific sensitive PDE activity, Fresh", "setting": "[1]; bovine spermatozoa rapidly after ejaculation (0 h)", "result": 57, "unit": "%"},
      {"measurement": "Percentage of total PDE activity sensitive to the inhibitor", "setting": "[1]; bovine spermatozoa, 1 μM cAMP, IBMX 1 mM, cilostamide 10 μM, rolipram 10 μM, papaverine 400 nM (FIG. 12B)", "result": 55, "unit": "%"},
      {"measurement": "Percentage of sensitive PDE activity, Cryo (B)", "setting": "[1]; IBMX 1 mM", "result": 50, "unit": "%"},
      {"measurement": "Percentage of sensitive PDE activity, Cryo (B)", "setting": "[1]; IBMX 1 mM, listed as papaverine", "result": 49.8, "unit": "%"},
      {"measurement": "Share of 3′-5′ cAMP-PDE activity inhibited (papaverine-sensitive)", "setting": "[1]; freshly ejaculated bovine spermatozoa, papaverine 400 nM (FIG. 21)", "result": "more than 50%"},
      {"measurement": "Percentage of sensitive PDE activity, Fresh (A)", "setting": "[1]; freshly ejaculated bovine spermatozoa, IBMX 1 mM", "result": 57, "unit": "%"},
      {"measurement": "Percentage of sensitive PDE activity, Fresh (A)", "setting": "[1]; freshly ejaculated bovine spermatozoa, IBMX 1 mM, listed as papaverine", "result": 57.1, "unit": "%"},
      {"measurement": "Papaverine-sensitive PDE activity in bovine epididymal fluid (in words)", "setting": "[2]", "result": "low"},
      {"measurement": "Share of PDE activity in bovine seminal plasma that is papaverine-sensitive", "setting": "[3]", "result": "more than 50%"}
    ]}
  ]
}
